Legend:
Experiment in all cases: relative viability (nuclei count vs DMSO), 5 days (fraction); higher = more cells survive
NCI-H2347 = test system: NCI-H2347
In short: (§1)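 Lung cancer cell lines, seeded in 1536-well plates, were treated the following day by pin tool with a single drug or with five library-drug doses (not always all listed) in √10 steps on top of a fixed anchor-drug dose. Cells were fixed and nuclei stained in one step after 5 days, and nuclei were counted. Relative viability is the nuclei count for treated wells divided by that for vehicle wells, reported as medians of duplicate plates.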

COR-L23 = test system: COR-L23
In short: as §1

HOP-62 = test system: HOP-62
In short: as §1

NCI-H1993 = test system: NCI-H1993
In short: as §1

NCI-H647 = test system: NCI-H647
In short: as §1

SK-MES-1 = test system: SK-MES-1
In short: as §1

NCI-H1792 = test system: NCI-H1792
In short: as §1

NCI-H522 = test system: NCI-H522
In short: as §1

NCI-H1734 = test system: NCI-H1734
In short: as §1

COR-L 105 = test system: COR-L 105
In short: as §1

NCI-H2228 = test system: NCI-H2228
In short: as §1

UMC-11 = test system: UMC-11
In short: as §1

NCI-H1395 = test system: NCI-H1395
In short: as §1

HARA = test system: HARA
In short: as §1

NCI-H1755 = test system: NCI-H1755
In short: as §1

NCI-H838 = test system: NCI-H838
In short: as §1

NCI-H1793 = test system: NCI-H1793
In short: as §1

NCI-H2170 = test system: NCI-H2170
In short: as §1

NCI-H358 = test system: NCI-H358
In short: as §1

HCC-15 = test system: HCC-15
In short: as §1

NCI-H2009 = test system: NCI-H2009
In short: as §1

NCI-H1355 = test system: NCI-H1355
In short: as §1

Cc1sc2c(c1C)C(c1ccc(Cl)cc1)=N[C@@H](CC(=O)OC(C)(C)C)c1nnc(C)n1-2 [JQ1] + Nc1nc2[nH]cc(CCc3ccc(C(=O)N[C@@H](CCC(=O)O)C(=O)O)cc3)c2c(=O)[nH]1 [Pemetrexed] (partner 0.2 µM)
relative viability (NCI-H2347; first compound 0.04 µM): 0.468 | relative viability (NCI-H2347; first compound 0.1265 µM): 0.423 | relative viability (NCI-H2347; first compound 0.4 µM): 0.403 | relative viability (NCI-H2347; first compound 1.265 µM): 0.405 | relative viability (NCI-H2347; first compound 4 µM): 0.357 | relative viability (COR-L23; first compound 0.04 µM): 0.21 | relative viability (COR-L23; first compound 0.1265 µM): 0.214 | relative viability (COR-L23; first compound 0.4 µM): 0.196 | relative viability (COR-L23; first compound 1.265 µM): 0.159 | relative viability (COR-L23; first compound 4 µM): 0.147 | relative viability (HOP-62; first compound 0.04 µM): 0.271 | relative viability (HOP-62; first compound 0.1265 µM): 0.266 | relative viability (HOP-62; first compound 0.4 µM): 0.26 | relative viability (HOP-62; first compound 1.265 µM): 0.137 | relative viability (HOP-62; first compound 4 µM): 0.106 | relative viability (NCI-H1993; first compound 0.04 µM): 0.592 | relative viability (NCI-H1993; first compound 0.1265 µM): 0.649 | relative viability (NCI-H1993; first compound 0.4 µM): 0.583 | relative viability (NCI-H1993; first compound 1.265 µM): 0.478 | relative viability (NCI-H1993; first compound 4 µM): 0.49 | relative viability (NCI-H647; first compound 0.04 µM): 0.156 | relative viability (NCI-H647; first compound 0.1265 µM): 0.125 | relative viability (NCI-H647; first compound 0.4 µM): 0.105 | relative viability (NCI-H647; first compound 1.265 µM): 0.0945 | relative viability (NCI-H647; first compound 4 µM): 0.0741 | relative viability (SK-MES-1; first compound 0.04 µM): 0.967 | relative viability (SK-MES-1; first compound 0.1265 µM): 0.686 | relative viability (SK-MES-1; first compound 0.4 µM): 0.397 | relative viability (SK-MES-1; first compound 1.265 µM): 0.289 | relative viability (SK-MES-1; first compound 4 µM): 0.235 | relative viability (NCI-H1792; first compound 0.04 µM): 0.705 | relative viability (NCI-H1792; first compound 0.1265 µM): 0.699 | relative viability (NCI-H1792; first compound 0.4 µM): 0.434 | relative viability (NCI-H1792; first compound 1.265 µM): 0.15 | relative viability (NCI-H1792; first compound 4 µM): 0.0524 | relative viability (NCI-H522; first compound 0.04 µM): 0.929 | relative viability (NCI-H522; first compound 0.1265 µM): 0.877 | relative viability (NCI-H522; first compound 0.4 µM): 0.54 | relative viability (NCI-H522; first compound 1.265 µM): 0.59 | relative viability (NCI-H522; first compound 4 µM): 0.444 | relative viability (NCI-H1734; first compound 0.04 µM): 0.358 | relative viability (NCI-H1734; first compound 0.1265 µM): 0.347 | relative viability (NCI-H1734; first compound 0.4 µM): 0.327 | relative viability (NCI-H1734; first compound 1.265 µM): 0.342 | relative viability (NCI-H1734; first compound 4 µM): 0.283 | relative viability (COR-L 105; first compound 0.04 µM): 0.818 | relative viability (COR-L 105; first compound 0.1265 µM): 0.566 | relative viability (COR-L 105; first compound 0.4 µM): 0.742 | relative viability (COR-L 105; first compound 1.265 µM): 0.385 | relative viability (COR-L 105; first compound 4 µM): 0.413 | relative viability (NCI-H2228; first compound 0.04 µM): 0.362 | relative viability (NCI-H2228; first compound 0.1265 µM): 0.314 | relative viability (NCI-H2228; first compound 0.4 µM): 0.358 | relative viability (NCI-H2228; first compound 1.265 µM): 0.312 | relative viability (NCI-H2228; first compound 4 µM): 0.184 | relative viability (UMC-11; first compound 0.04 µM): 0.73 | relative viability (UMC-11; first compound 0.1265 µM): 0.584 | relative viability (UMC-11; first compound 0.4 µM): 0.352 | relative viability (UMC-11; first compound 1.265 µM): 0.254 | relative viability (UMC-11; first compound 4 µM): 0.193 | relative viability (NCI-H1395; first compound 0.04 µM): 0.911 | relative viability (NCI-H1395; first compound 0.1265 µM): 0.737 | relative viability (NCI-H1395; first compound 0.4 µM): 0.797 | relative viability (NCI-H1395; first compound 1.265 µM): 0.496 | relative viability (NCI-H1395; first compound 4 µM): 0.343 | relative viability (HARA; first compound 0.04 µM): 0.249 | relative viability (HARA; first compound 0.1265 µM): 0.271 | relative viability (HARA; first compound 0.4 µM): 0.235 | relative viability (HARA; first compound 1.265 µM): 0.217 | relative viability (HARA; first compound 4 µM): 0.185 | relative viability (NCI-H1755; first compound 0.04 µM): 0.444 | relative viability (NCI-H1755; first compound 0.1265 µM): 0.444 | relative viability (NCI-H1755; first compound 0.4 µM): 0.387 | relative viability (NCI-H1755; first compound 1.265 µM): 0.323 | relative viability (NCI-H1755; first compound 4 µM): 0.324 | relative viability (NCI-H838; first compound 0.04 µM): 0.24 | relative viability (NCI-H838; first compound 0.1265 µM): 0.167 | relative viability (NCI-H838; first compound 0.4 µM): 0.176 | relative viability (NCI-H838; first compound 1.265 µM): 0.177 | relative viability (NCI-H838; first compound 4 µM): 0.17 | relative viability (NCI-H1793; first compound 0.04 µM): 0.748 | relative viability (NCI-H1793; first compound 0.1265 µM): 0.81 | relative viability (NCI-H1793; first compound 0.4 µM): 0.648 | relative viability (NCI-H1793; first compound 1.265 µM): 0.661 | relative viability (NCI-H1793; first compound 4 µM): 0.78 | relative viability (NCI-H2170; first compound 0.04 µM): 0.257 | relative viability (NCI-H2170; first compound 0.1265 µM): 0.263 | relative viability (NCI-H2170; first compound 0.4 µM): 0.248 | relative viability (NCI-H2170; first compound 1.265 µM): 0.238 | relative viability (NCI-H2170; first compound 4 µM): 0.194 | relative viability (NCI-H358; first compound 0.04 µM): 0.185 | relative viability (NCI-H358; first compound 0.1265 µM): 0.198 | relative viability (NCI-H358; first compound 0.4 µM): 0.199 | relative viability (NCI-H358; first compound 1.265 µM): 0.16 | relative viability (NCI-H358; first compound 4 µM): 0.153 | relative viability (HCC-15; first compound 0.04 µM): 0.238 | relative viability (HCC-15; first compound 0.1265 µM): 0.224 | relative viability (HCC-15; first compound 0.4 µM): 0.19 | relative viability (HCC-15; first compound 1.265 µM): 0.182 | relative viability (HCC-15; first compound 4 µM): 0.199 | relative viability (NCI-H2009; first compound 0.04 µM): 0.958 | relative viability (NCI-H2009; first compound 0.1265 µM): 0.795 | relative viability (NCI-H2009; first compound 0.4 µM): 0.954 | relative viability (NCI-H2009; first compound 1.265 µM): 0.459 | relative viability (NCI-H2009; first compound 4 µM): 0.234 | relative viability (NCI-H1355; first compound 0.04 µM): 1.05 | relative viability (NCI-H1355; first compound 0.1265 µM): 1.04 | relative viability (NCI-H1355; first compound 0.4 µM): 1.07 | relative viability (NCI-H1355; first compound 1.265 µM): 0.893 | relative viability (NCI-H1355; first compound 4 µM): 0.718

From the supplement of paper PMC10307832
